Results as given in US4931288A, “Controlled release compositions (II)” (Lloyds Bank PLC, priority 1979, dated 1990).
Values belong to the compound of their own block, whether it stands above or below them.

How the values were obtained:
[1] = Clinical induction of abortion; format: in vivo, human; conditions: from 1 to 2.5 mg
[2] = In vitro release of prostaglandin from dry polymer cylinders/pessaries/slices into phosphate buffer pH 7.4 via 3H activity; conditions: for T1/2: dried polymer sample, pH 7.4, 37°; for t1/2: pH 7.4, 37° C.
Description: 19.08 g Prostin E2 at a 1% w/v solution in dephydrated ethanol is weighed. This is equivalent to 24.15 ml and therefore 0.2415 g PGE2.
25 of the pessaries (2.6 mm×10 mm×10 mm total weight 23.02 g) are then put in a polythene bag. The swelling solution is added, and the bag is sealed. The pessaries are then allowed to swell in the PGE2 solution for 20 hours by which time nearly all the solution has been absorbed by the polymer. The bag is cut open and the swollen pessaries are removed and weighed. Uptake of solution: 104.75 g. Average PGE2 content/pessary 9.3 mg.
The swollen pessaries are then vacuum dried at room temperature.
An identical pessary is prepared with the addition of 1 μCi ^3 H labelled PGE2 to study in vitro the release of PGE2 from the dry pessary into phosphate buffer pH 7.4 at 37° C. through measurement of ^3 H activity of the buffer solution which is replaced by fresh buffer at regular intervals.
A slice of the polymer 1 mm×11 mm×22 mm weighing 0.2678 g is added to the Ono solution in a polythene bag which is then sealed. After 6 hours swelling the bag is cut open and the swollen gel is weighed.
A slice of PEO 1.2×24×40 mm weighing 1.3083 g is added to the solution in a polythene bag which is then sealed.

[3] = In vitro release of prostaglandin from swollen (undried) polymer cylinders/pessaries into phosphate buffer pH 7.4 at 37° C.; format: physicochemical; conditions: for t1/2: pH 7.4, 37°
Description: (B) The procedure described in (A) is followed but the swollen cylinders obtained after 24 hours treatment with the PGE2 solution are not dried but are tested directly for the release of PGE2 into pH 7.4 phosphate buffer at 37° C. In this instance a typical half life is of the order of 10 hours.
To study the release of PGE2 from a fully swollen pessary into phosphate buffer pH 7.4 at 37° the polymer is swollen in an ethanol/water solution of PGE2 of 0.87 g C2 H5 OH solution of 1% w/v Prostin E2 contains 11 mg PGE2 0.09 g C2 H5 OH containing 1 μCi of ^3 HPGE2 is added, then 3.56 g H2 O. A slice of polymer 3.1 mm×10 mm×30 mm weighing 1.13 g is added to the prepared PGE2 solution in 3.7/1, w/w, water/ethanol in a polythene bag. The bag is sealed and the polymer allowed to swell over 20 hours. The swollen polymer slice is then removed and the surface wiped dry with a tissue before weighing. Uptake of solution: 4.44 g i.e. almost all the PGE2 is contained in the swollen gel. The pessary is rinsed in distilled water and then transferred to phosphate buffer solution pH 7.4 at 37° C. The release of PGE2 into the surrounding solution is measured by frequent regular replacement of the buffer and counting the activity of ^3 H in the withdrawn solution. […] It is also possible to calculate the diffusion coefficient of PGE2 in the swollen gel D=0.83×10^-6 cm^2 sec^-1.

[4] = Clinical pilot study of hydrogel vaginal pessaries containing PGE2 10 mg (induction of labour); format: in vivo, human
Description: Hydrogel vaginal pessaries, formulated as above, each containing PGE2 10 mg, have been evaluated clinically in a pilot study.

Compound: CCCCC(C)(C)[C@@H](O)/C=C/[C@H]1[C@H](O)CC(=O)[C@@H]1CCCC/C=C/C(=O)O (relative stereo) [16:16-dimethyl-trans-Δ^2 -PGE1]
- induction of abortion [1]: Induction of abortion has been effected

- half life of release ([2]; Example 11, dry cylinders, PEG 6,000/MDI/TMP (0.75 molar) polymer, pH 7.4 phosphate buffer, typical): ~95 h
Compound: CCCCC(C)(C)[C@H](O)/C=C/[C@H]1[C@H](O)CC(=O)[C@@H]1CCCC/C=C/C(=O)OC [16,16-dimethyl-trans Δ^2 -PGE1 methyl ester]

- half-life of the drug in the pessary ([2]; Example 15, dried slice 1.2×24×40 mm, buffer pH 7.4, 37° C.): 3.7 h
Compound: CS(=O)(=O)NC(=O)CCC/C=C\C[C@H]1C(=O)C[C@@H](O)[C@@H]1/C=C/[C@@H](O)COc1ccccc1 [N methanesulphonyl 15z, 11α, 13E 15α)-9-Oxo-11,15-dihydroxy-16-phenoxy-w-tetranorprosta-5,13 dien-1-amide]

- T1/2 ([2]; Example 13, thickness 0.25 mm): 0.5 h
- T1/2 ([2]; Example 13, thickness 0.65 mm): 3.0 h
- T1/2 ([2]; Example 13, thickness 1.00 mm): 6.3 h
- half life of Ono in this sample ([2]; Example 13, dried slice 1 mm×11 mm×22 mm, phosphate buffer pH 7.4, 37°): 6.3 h
Compound: CCCCC(C)(C)[C@H](O)/C=C/[C@H]1[C@H](O)CC(=O)[C@@H]1C/C=C\CCCC(=O)OC [Ono, 16,16-dimethyl PGE2, methyl ester]
- dependence of half life t1/2 on thickness ([2]; Example 13, 3 different thicknesses): directly proportional to the square of the thickness

Compound: CCCCC(C)(C)C(O)C=CC1C(O)CC(=O)C1CC=CCCCC(=O)Oc1ccc(C=NNC(N)=O)cc1 (stereo not drawn) [PG ester, 16,16 dimethyl prostaglandin E2 benzaldehyde semi-carbazone]
- duration of the release pattern ([2]; Example 14, 0.25 mm slice): 2 weeks
- release rate ([2]; Example 14, 0.25 mm slice, day 2): 50 µg/h
- release rate ([2]; Example 14, 0.25 mm slice, overnight): 13 µg/h
- character of the release ([2]; Example 14, thin (0.25 mm) sample): essentially that of a fully swollen device containing a dispersion rather than a solution of a low solubility prostaglandin analogue

- half life for release ([3]; Example 10(B), swollen cylinders not dried, pH 7.4 phosphate buffer, 37° C., typical): ~10 h
- half life t1/2 of PGE2 in the swollen pessary ([3]; Example 12, fully swollen pessary 3.1 mm×10 mm×30 mm, phosphate buffer pH 7.4, 37°): 2.7 h
- t1/2 ([3]; Example 12, fully swollen pessary, thickness 1.2 mm): 0.7 h
- t1/2 ([3]; Example 12, fully swollen pessary, thickness 2.4 mm): 2.0 h
- t1/2 ([3]; Example 12, fully swollen pessary, thickness 3.1 mm): 2.7 h
- diffusion coefficient of PGE2 in the swollen gel, D ([3]; Example 12, fully swollen pessary, calculated from release measurements): 0.83×10^-6 cm^2 sec^-1
- half life for release of the drug ([2]; Example 10(A), dry cylinders, PEG 6,000/MDI/TMP (0.75 molar) polymer, pH 7.4 phosphate buffer, 37° C., typical): ~20 h
- t1/2 ([2]; Example 12, dry pessary, thickness 1.2 mm): 1.4 h
- t1/2 ([2]; Example 12, dry pessary, thickness 1.5 mm): 2.4 h
- t1/2 ([2]; Example 12, dry pessary, thickness 1.7 mm): 2.7 h
- t1/2 ([2]; Example 12, dry pessary, thickness 2.6 mm): 7.0 h
- t1/2 ([2]; Example 12, dry pessary, thickness 2.9 mm): 8.0 h
- t1/2 ([2]; Example 12, dry pessary, thickness 3.4 mm): 12.0 h
- half life t1/2 of the PGE2 in this polymer ([2]; Example 12, dry pessary, phosphate buffer pH 7.4, 37° C.): 7 h
Compound: CCCCC[C@H](O)/C=C/[C@H]1[C@H](O)CC(=O)[C@@H]1C/C=C\CCCC(=O)O [PGE2]
- half life in the fully swollen device relative to the initially dry device ([3]; Example 12): approximately half of the half life in the initially dry device
- constancy of the rate of release ([3]; Example 12, fully swollen devices): do not provide the desirable reasonably constant period of the rate of release
- labour and delivery outcome ([4]; patients with average or favourable induction prospects, PGE2 treatment alone, without orthodox induction): became established in labour and made good progress, with successful vaginal delivery
- cervical ripening ([4]; unfavourable patients): progressive
- establishment in labour ([4]; unfavourable patients): all were established in labour
- latent phase of labour ([4]; unfavourable patients): expectedly longer
- agreement of clinical experience with in vitro release ([4]; vaginal pessaries, PGE2 10 mg): accorded well with in vitro release studies
- course of uterine activity ([4]; vaginal pessaries, PGE2 10 mg): maintained or gradually increased
- time to appreciable uterine activity, not requiring analgesia ([4]; vaginal pessaries, PGE2 10 mg): 1 to 2 h
- ripening of the cervix ([4]; vaginal pessaries, PGE2 10 mg, all cases): significant `ripening` of the cervix in all cases
